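Test compounds were applied to cells in 96-well plates for 48 hours at 5 doses. At the GI50, growth is halved. TGI is the concentration that stops growth completely.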
Experiments:
Assay in all cases: NCI anticancer screen, dose series, 48 h
[1] = test system: HCT-15 colon
[2] = test system: OVCAR-5 ovarian
[3] = test system: SK-MEL-28 melanoma
[4] = test system: EKVX NSCLC
[5] = test system: BT-549 breast
[6] = test system: DU-145 prostate
[7] = test system: SK-MEL-5 melanoma
[8] = test system: OVCAR-8 ovarian
[9] = test system: SK-MEL-2 melanoma
[10] = test system: KM12 colon
[11] = test system: A498 renal
[12] = test system: PC-3 prostate
[13] = test system: ACHN renal
[14] = test system: 786-0 renal
[15] = test system: HT29 colon
[16] = test system: MDA-MB-231 breast
[17] = test system: UACC-257 melanoma
[18] = test system: UO-31 renal
[19] = test system: A549 NSCLC
[20] = test system: HCC-2998 colon
[21] = test system: HS 578T breast
[22] = test system: HL-60(TB) leukemia
[23] = test system: SN12C renal
[24] = test system: MALME-3M melanoma
[25] = test system: SK-OV-3 ovarian
[26] = test system: RXF 393 renal
[27] = test system: HCT-116 colon
[28] = test system: UACC-62 melanoma
[29] = test system: MDA-MB-435
[30] = test system: SF-539 CNS
[31] = test system: SW-620 colon
[32] = test system: TK-10 renal
[33] = test system: SNB-75 CNS
[34] = test system: NCI-H460 lung
[35] = test system: IGROV1 ovarian
[36] = test system: OVCAR-4 ovarian
[37] = test system: T-47D breast
[38] = test system: NCI-H226 lung
[39] = test system: NCI/ADR-RES ovarian
[40] = test system: OVCAR-3 ovarian
[41] = test system: NCI-H522 lung

CCOC(=O)c1cc(C(=O)c2cc(OC)c(OC)c(OC)c2)n2ccc(-c3cc[n+](CC(=O)c4cc(OC)c(OC)c(OC)c4)cc3)cc12
GI50 [1]: 2.62 µM | TGI [1]: 7.93 µM | GI50 [2]: 1.84 µM | TGI [2]: 5.24 µM | GI50 [3]: 1.75 µM | TGI [3]: 3.6 µM | GI50 [4]: 2.64 µM | TGI [4]: 10.3 µM | GI50 [5]: 1.98 µM | TGI [5]: 4.49 µM | GI50 [6]: 1.8 µM | TGI [6]: 3.39 µM | GI50 [7]: 1.81 µM | TGI [7]: 3.54 µM | GI50 [8]: 2.33 µM | TGI [8]: 5.47 µM | GI50 [9]: 2.6 µM | TGI [9]: 7.12 µM | GI50 [10]: 1.81 µM | TGI [10]: 3.42 µM | GI50 [11]: 1.96 µM | TGI [11]: 3.85 µM | GI50 [12]: 2.61 µM | TGI [12]: 8.12 µM | GI50 [13]: 3.33 µM | TGI [13]: 13.6 µM | GI50 [14]: 1.75 µM | TGI [14]: 3.39 µM | GI50 [15]: 1.83 µM | TGI [15]: 3.68 µM | GI50 [16]: 1.66 µM | TGI [16]: 3.29 µM | GI50 [17]: 3.13 µM | TGI [17]: 7.04 µM | GI50 [18]: 7.97 µM | TGI [18]: 26.5 µM | GI50 [19]: 3.29 µM | TGI [19]: 6.29 µM | GI50 [20]: 3.32 µM | TGI [20]: 15.1 µM | GI50 [21]: 1.74 µM | TGI [21]: 4.29 µM | GI50 [22]: 2.58 µM | TGI [22]: 5.75 µM | GI50 [23]: 1.87 µM | TGI [23]: 3.87 µM | GI50 [24]: 1.73 µM | TGI [24]: 3.68 µM | GI50 [25]: 19.6 µM | TGI [25]: 47.1 µM | GI50 [26]: 1.66 µM | TGI [26]: 3.48 µM | GI50 [27]: 1.72 µM | TGI [27]: 3.5 µM | GI50 [28]: 2.32 µM | TGI [28]: 5.72 µM | GI50 [29]: 1.9 µM | TGI [29]: 3.85 µM | GI50 [30]: 1.61 µM | TGI [30]: 3.3 µM | GI50 [31]: 1.76 µM | TGI [31]: 3.47 µM | GI50 [32]: 1.79 µM | TGI [32]: 3.5 µM | GI50 [33]: 1.46 µM | TGI [33]: 3.36 µM | GI50 [34]: 2 µM | TGI [34]: 3.78 µM | GI50 [35]: 2.12 µM | TGI [35]: 5.92 µM | GI50 [36]: 1.74 µM | TGI [36]: 3.67 µM | GI50 [37]: 1.94 µM | TGI [37]: 4.85 µM | GI50 [38]: 2.37 µM | TGI [38]: 6.62 µM | GI50 [39]: > 100 µM | TGI [39]: > 100 µM | GI50 [40]: 1.83 µM | TGI [40]: 3.6 µM | GI50 [41]: 2.13 µM | TGI [41]: 5.04 µM

Source: PubChem BioAssay (NCI)
